Results published in patent US6737383B1, “Herbicidal oxadiazolidines” (priority 1999, dated 2004).

Tests used:
bedstraw = assay: Test B pre/postemergence bedstraw; assay type: in vivo, Galium aparine
Outline: (§1)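 Response is a visual 0-to-10 score relative to untreated plants, where 0 means no effect and 10 means complete control, taken twelve to sixteen days after application. Treatments went onto soil at planting and onto foliage of 1- to 4-leaf plants, using a surfactant-containing non-phytotoxic solvent.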

blackgrass = assay: Test B pre/postemergence blackgrass; assay type: in vivo, Alopecurus myosuroides
Outline: as §1

surinam grass = assay: Test B pre/postemergence surinam grass; assay type: in vivo, Brachiaria decumbens
Outline: as §1

corn = assay: Test B pre/postemergence corn; assay type: in vivo, Zea mays
Outline: as §1

giant foxtail = assay: Test B pre/postemergence giant foxtail; assay type: in vivo, Setaria faberii
Outline: as §1

morningglory = assay: Test B pre/postemergence morningglory; assay type: in vivo, Ipomoea hederacea
Outline: as §1

pigweed = assay: Test B pre/postemergence pigweed; assay type: in vivo, Amaranthus retroflexus
Outline: as §1

rape = assay: Test B pre/postemergence rape; assay type: in vivo, Brassica napus
Outline: as §1

soybean = assay: Test B pre/postemergence soybean; assay type: in vivo, Glycine max
Outline: as §1

sugar beet = assay: Test B pre/postemergence sugar beet; assay type: in vivo, Beta vulgaris
Outline: as §1

velvetleaf = assay: Test B pre/postemergence velvetleaf; assay type: in vivo, Abutilon theophrasti
Outline: as §1

purple nutsedge = assay: Test B pre/postemergence purple nutsedge; assay type: in vivo, Cyperus rotundus
Outline: as §1

rice = assay: Test B flood test rice; assay type: in vivo, Oryza sativa
Outline: (§2)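 Plants were grown to the 2-leaf stage before treatment with test chemical, then held in a greenhouse for twelve to sixteen days. Injury was visually rated against untreated controls on a 0–10 scale, where 0 is no effect and 10 is complete control.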

smallflower flatsedge = assay: Test B flood test smallflower flatsedge; assay type: in vivo, Cyperus difformis
Outline: as §2

duck salad = assay: Test B flood test duck salad; assay type: in vivo, Heteranthera limosa
Outline: as §2

bamyardgrass = assay: Test B flood test barnyardgrass; assay type: in vivo, Echinochloa crus-galli
Outline: as §2

[1] = Preemergence, Rate 62 g/ha, scale of 0 to 10 where 0 is no effect and 10 is complete control
[2] = Preemergence, Rate 250 g/ha, scale of 0 to 10 where 0 is no effect and 10 is complete control
[3] = Preemergence, Rate 500 g/ha, scale of 0 to 10 where 0 is no effect and 10 is complete control
[4] = Rate 62 g/ha, Postemergence, scale of 0 to 10 where 0 is no effect and 10 is complete control
[5] = Rate 125 g/ha, Postemergence, scale 0 to 10
[6] = Rate 125 g/ha, Preemergence, scale of 0 to 10 where 0 is no effect and 10 is complete control
[7] = Rate 500 g/ha, Postemergence, scale 0 to 10, 0 no effect, 10 complete control
[8] = Rate 62 g/ha, headed Pre-emergence (flood test species), scale 0 to 10 (0 no effect, 10 complete control)
[9] = Rate 125 g/ha, Pre-emergence, flood test species, scale 0 to 10 where 0 is no effect and 10 is complete control
[10] = Rate 250 g/ha, Pre-emergence, flood-test species, scale 0 to 10, 0 is no effect, 10 is complete control
[11] = Rate 500 g/ha, Pre-emergence, flood test species, scale 0 to 10 (0 no effect, 10 complete control)

Cc1cc(C)c(-n2c(=O)on(C(=O)N(c3ccc(F)cc3)C(C)C)c2=O)c(Br)c1 [Compound 224]
Bedstraw plant response rating (bedstraw; [1]): 0
Bedstraw plant response rating (bedstraw; [2]): 0
Plant response rating, Bedstraw (bedstraw; [3]): 0
Bedstraw plant response rating (bedstraw; [4]): 3
Bedstraw plant response rating (bedstraw; [5]): 3
Bedstraw plant response rating (bedstraw; [6]): 0
Plant response rating (0 to 10; 0 is no effect, 10 is complete control), Bedstraw (bedstraw; Rate 250 g/ha, Postemergence): 4
Bedstraw plant response rating (bedstraw; [7]): 4
Blackgrass plant response rating (blackgrass; [1]): 2
Blackgrass plant response rating (blackgrass; [2]): 3
Plant response rating, Blackgrass (blackgrass; [3]): 5
Blackgrass plant response rating (blackgrass; [4]): 0
Blackgrass plant response rating (blackgrass; [5]): 0
Blackgrass plant response rating (blackgrass; [6]): 2
Plant response rating (0 to 10; 0 is no effect, 10 is complete control), Blackgrass (blackgrass; Rate 250 g/ha, Postemergence): 3
Blackgrass plant response rating (blackgrass; [7]): 4
B. signalgrass plant response rating (surinam grass; [1]): 0
B. signalgrass plant response rating (surinam grass; Preemergence, Rate 250 g/ha, scale 0 to 10, 0 is no effect, 10 is complete control): 4
Plant response rating, B. signalgrass (surinam grass; [3]): 4
B. signalgrass plant response rating (surinam grass; [4]): 0
B. signalgrass plant response rating (surinam grass; Rate 125 g/ha, Postemergence, scale 0 (no effect) to 10 (complete control)): 0
B. signalgrass plant response rating (surinam grass; [6]): 3
Plant response rating (0 to 10; 0 is no effect, 10 is complete control), B. signalgrass (surinam grass; Rate 250 g/ha, Postemergence): 0
B. signalgrass plant response rating (surinam grass; [7]): 0
Corn plant response rating (corn; [1]): 0
Corn plant response rating (corn; [2]): 0
Plant response rating, Corn (corn; [3]): 0
Corn plant response rating (corn; [4]): 0
Corn plant response rating (corn; [5]): 0
Corn plant response rating (corn; [6]): 0
Plant response rating (0 to 10; 0 is no effect, 10 is complete control), Corn (corn; Rate 250 g/ha, Postemergence): 0
Corn plant response rating (corn; [7]): 0
Giant foxtail plant response rating (giant foxtail; [1]): 3
Giant foxtail plant response rating (giant foxtail; [2]): 9
Plant response rating, Giant foxtail (giant foxtail; [3]): 10
Giant foxtail plant response rating (giant foxtail; [4]): 0
Giant foxtail plant response rating (giant foxtail; [5]): 0
Giant foxtail plant response rating (giant foxtail; [6]): 7
Plant response rating (0 to 10; 0 is no effect, 10 is complete control), Giant foxtail (giant foxtail; Rate 250 g/ha, Postemergence): 4
Giant foxtail plant response rating (giant foxtail; [7]): 0
Morningglory plant response rating (morningglory; [1]): 0
Morningglory plant response rating (morningglory; [2]): 0
Plant response rating, Morningglory (morningglory; [3]): 0
Morningglory plant response rating (morningglory; [4]): 2
Morningglory plant response rating (morningglory; [5]): 2
Morningglory plant response rating (morningglory; [6]): 0
Plant response rating (0 to 10; 0 is no effect, 10 is complete control), Morningglory (morningglory; Rate 250 g/ha, Postemergence): 5
Morningglory plant response rating (morningglory; [7]): 6
Redroot pigweed plant response rating (pigweed; [1]): 0
Redroot pigweed plant response rating (pigweed; [2]): 0
Plant response rating, Redroot pigweed (pigweed; [3]): 4
Redroot pigweed plant response rating (pigweed; [4]): 0
Redroot pigweed plant response rating (pigweed; [5]): 2
Redroot pigweed plant response rating (pigweed; [6]): 0
Plant response rating (0 to 10; 0 is no effect, 10 is complete control), Redroot pigweed (pigweed; Rate 250 g/ha, Postemergence): 4
Redroot pigweed plant response rating (pigweed; [7]): 7
Rape plant response rating (rape; [1]): 0
Rape plant response rating (rape; [2]): 0
Plant response rating, Rape (rape; [3]): 0
Rape plant response rating (rape; [4]): 0
Rape plant response rating (rape; [5]): 0
Rape plant response rating (rape; [6]): 0
Plant response rating (0 to 10; 0 is no effect, 10 is complete control), Rape (rape; Rate 250 g/ha, Postemergence): 0
Rape plant response rating (rape; [7]): 0
Soybean plant response rating (soybean; [1]): 0
Soybean plant response rating (soybean; [2]): 0
Plant response rating, Soybean (soybean; [3]): 0
Soybean plant response rating (soybean; [4]): 2
Soybean plant response rating (soybean; [5]): 3
Soybean plant response rating (soybean; [6]): 0
Plant response rating (0 to 10; 0 is no effect, 10 is complete control), Soybean (soybean; Rate 250 g/ha, Postemergence): 4
Soybean plant response rating (soybean; [7]): 2
Sugarbeets plant response rating (sugar beet; [1]): 0
Sugarbeets plant response rating (sugar beet; [2]): 0
Plant response rating, Sugarbeets (sugar beet; [3]): 0
Sugarbeets plant response rating (sugar beet; [4]): 1
Sugarbeets plant response rating (sugar beet; [5]): 2
Sugarbeets plant response rating (sugar beet; [6]): 0
Plant response rating (0 to 10; 0 is no effect, 10 is complete control), Sugarbeets (sugar beet; Rate 250 g/ha, Postemergence): 4
Sugarbeets plant response rating (sugar beet; [7]): 4
Velvetleaf plant response rating (velvetleaf; [1]): 0
Velvetleaf plant response rating (velvetleaf; [2]): 0
Plant response rating, Velvetleaf (velvetleaf; [3]): 0
Velvetleaf plant response rating (velvetleaf; [4]): 0
Velvetleaf plant response rating (velvetleaf; [5]): 0
Velvetleaf plant response rating (velvetleaf; [6]): 0
Plant response rating (0 to 10; 0 is no effect, 10 is complete control), Velvetleaf (velvetleaf; Rate 250 g/ha, Postemergence): 0
Velvetleaf plant response rating (velvetleaf; [7]): 4
Nutsedge plant response rating (purple nutsedge; [1]): 0
Nutsedge plant response rating (purple nutsedge; [4]): 0
Nutsedge plant response rating (purple nutsedge; [5]): 0
Plant response rating (0 to 10; 0 is no effect, 10 is complete control), Nutsedge (purple nutsedge; Rate 250 g/ha, Postemergence): 0
Nutsedge plant response rating (purple nutsedge; [7]): 0
Rice plant response rating (rice; [8]): 0
Rice plant response rating (rice; [9]): 0
Rice plant response rating (rice; [10]): 0
Rice plant response rating (rice; [11]): 0
S. Flatsedge plant response rating (smallflower flatsedge; [8]): 0
S. Flatsedge plant response rating (smallflower flatsedge; [9]): 0
S. Flatsedge plant response rating (smallflower flatsedge; [10]): 0
S. Flatsedge plant response rating (smallflower flatsedge; [11]): 0
Ducksalad plant response rating (duck salad; [8]): 0
Ducksalad plant response rating (duck salad; [9]): 0
Ducksalad plant response rating (duck salad; [10]): 0
Ducksalad plant response rating (duck salad; [11]): 0
Barnyardgrass plant response rating (bamyardgrass; [8]): 0
Barnyardgrass plant response rating (bamyardgrass; [9]): 0
Barnyardgrass plant response rating (bamyardgrass; [10]): 0
Barnyardgrass plant response rating (bamyardgrass; [11]): 0
